Assay in all cases: inhibition of tumour cell growth, NCI panel, 48 h
Assay [1] has as its system RXF 393 renal.
Assay [2] relates to HOP-62 NSCLC.
In assay [3] the test system is 786-0 renal.
The test system of assay [4] is K-562 leukemia.
In assay [5] the test system is SN12C renal.
Assay [6] concerns SF-295 CNS.
For assay [7], the system named is SR leukemia.
Assay [8] relates to UACC-62 melanoma.
For assay [9], the system named is U251 CNS.

Molecules are shown by their SMILES.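 These data come from cells grown in 96-well plates and exposed to compound for 48 hours at five concentrations. The concentration for 50% growth inhibition is given as GI50. TGI is the concentration that stops growth completely.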

In the case of `CN(C)CCCNC(=O)c1cc(NC(=O)c2cc(NC(=O)CCCN3c4ccccc4C=Cc4ccccc43)cn2C)cn1C`, the GI50 in [1] was 8.61 µM; in assay [2] it was 10.2 µM; in assay [3], 11.4 µM; in assay [4], 2.12 µM; in assay [5] it was 13.8 µM; in [6] it was 2.07 µM. Besides, the TGI was 85 µM in [1]; above 100 µM in assay [2]; above 100 µM in [3]; 4.97 µM in [4]; 43 µM in [5]; 5.38 µM in assay [6].

As to `CC(=O)CC(=O)CCCC(=O)Nc1ccc(Cl)cc1Cl`, the TGI in [2], in assay [7], in [3], in assay [4], in assay [5] and in [6] was above 100 µM in each case. In assay [8], this compound had a TGI above 100 µM.

`COC(=O)C(=O)C(C(=O)C(=O)Nc1ccc([N+](=O)[O-])cc1[N+](=O)[O-])c1nc2ccc([N+](=O)[O-])cc2[nH]c1=O` (stereo not drawn): the TGI in assay [1], in assay [2], in assay [7], in [3], in [4] and in assay [9] was above 100 µM each time. Besides, the TGI in assay [5], in assay [6] and in [8] was above 100 µM each time.

In the case of `Cc1c2[nH]c3ccc(Br)cc3c2c(C)c2[nH]ccc(=O)c12`, the TGI in [2] came out at 28.6 µM; in [7] it was 37.9 µM; in assay [3], 25.1 µM; in [4], 55.7 µM; in [5] it was 32.4 µM; in assay [6] it was 28.7 µM.

As for `COC(=O)[C@H](C)[C@H]1CC[C@@](C)([C@H]2CC3C(C)(C)[C@H]4CCC(C)=C[C@H]4C[C@@]3(C)O2)OO1` (stereo partly drawn), the TGI in assay [2] was 37.1 µM; in assay [7] it was 30.5 µM; in assay [3], 20.2 µM; in assay [4] it was 24.2 µM; in assay [9], 26.1 µM; in assay [5] it was 24 µM. Moreover, the TGI in assay [6] worked out at 28.4 µM; in assay [8], 35.6 µM.

Take `CCC12CCC(O)C1N(C)CCC2Sc1ccccc1` (stereo not drawn): the TGI in [1], in assay [2], in assay [3], in assay [4], in assay [9] and in assay [5] was above 100 µM throughout. In addition, the TGI in [6] and in assay [8] was above 100 µM throughout.

On to `Cc1cc(N(CCC#N)CCC#N)ccc1N=Nc1ccccc1[N+](=O)[O-]`, for which the TGI in [1], in assay [2], in [3], in assay [4], in assay [9] and in [5] was above 100 µM throughout. Besides, the TGI in assay [6] and in [8] was above 100 µM in each case.

In the case of `COC(=O)C/C(C)=C/[C@@H](O)[C@H]1O[C@@H]2CC/C(Cl)=C/C/C=C(/C)[C@H](OC(C)=O)CC(=O)O[C@@H]1C2`, the GI50 is 2.34 µM in [1]; 2.5 µM in [2]; 0.813 µM in [7]; 0.708 µM in [3]; 4.34 µM in assay [4]; 4.55 µM in [9]. Also, the GI50 was 1.01 µM in assay [5] and 0.694 µM in assay [8]. Also, the TGI was 9.23 µM in assay [1]; 7.17 µM in assay [2]; 3.19 µM in assay [7]; 2.53 µM in assay [3]; above 25 µM in [4]; 13.2 µM in assay [9]. For the same compound, the TGI in assay [5] came to 7.4 µM; in assay [8], 1.67 µM.

Regarding `Cc1ccc(C)c(NC(=O)CC2C(=O)Nc3ccccc3S2(=O)=O)c1` (stereo not drawn), the TGI was 49.6 µM in [1]; above 100 µM in assay [7]; 56.5 µM in assay [3]; above 100 µM in assay [4]; above 100 µM in assay [9]; above 100 µM in [5]. Besides, the TGI in assay [6] and in assay [8] was above 100 µM each time.

On to `NC(=O)c1csc(C2O[C@@H](COP(=O)(O)OP(=O)(O)OC[C@H]3OC(n4cnc5c(N)ncnc54)[C@H](O)[C@@H]3O)[C@H](O)[C@@H]2O)n1` (stereo partly drawn), for which the TGI in [2], in assay [3], in assay [4], in [9], in assay [5] and in assay [6] was above 100 µM each time. In addition, the TGI in assay [8] was above 100 µM.

Take `O=C(Nc1cccc(C2=NCCN2)c1)c1ccc(OCCCOc2ccc(C(=O)Nc3cccc(C4=NCCN4)c3)cc2)cc1`: the GI50 in [1] was 5.78 µM; in assay [2], 4.45 µM; in assay [7], 1.96 µM; in assay [3] it was 3.69 µM; in assay [4], 1.25 µM; in [6], 3.29 µM. For the same compound, the GI50 in [8] was 1.41 µM. Moreover, the TGI in assay [1], in assay [2], in assay [7], in [3], in assay [4] and in assay [6] was above 100 µM each time. In addition, the TGI in assay [8] stood at 45.7 µM.

Consider `CC1(c2ccccc2)CC12C(=O)NC(=O)NC2=O` (stereo not drawn), for which the TGI in assay [2], in assay [7], in assay [3], in assay [4], in [9] and in [5] was above 100 µM in each case. Moreover, the TGI in assay [6] and in assay [8] was above 100 µM throughout.

`CCCCCCC(O)C/C=C/CCCCCC/C(C(=O)OC)=C(/O)C(=O)OCC` (stereo not drawn): the TGI in [2], in assay [7], in [3], in assay [4], in assay [9] and in assay [5] was above 100 µM throughout. In addition, the TGI in assay [6] and in assay [8] was above 100 µM in each case.

Consider `COc1c2c(c(OC)c3c(=O)cc(C/C(=N/NC(=O)C[n+]4ccccc4)C(=O)Nc4cc(C)ccc4C)oc13)OCO2`, for which the TGI in assay [1], in assay [2], in [3], in assay [4], in [9] and in [5] was above 100 µM throughout. Moreover, in [8], the TGI is above 100 µM.

Take `COC(=O)C1Cc2c(n(C)c3ccccc23)C(c2ccccc2)N1` (stereo not drawn): the TGI in assay [7], in assay [3], in [4], in [9], in [5] and in assay [6] was above 100 µM in each case. The compound also returned a TGI in assay [8] above 100 µM.

Values taken from PubChem BioAssay (NCI).
